Test results taken from patent publication US20110033560A1, “PREPARATION AND A COMPONENT INTENDED TO BE ADDED TO A TOBACCO PRODUCT” (BIOHIT OYJ, priority 2007, published 2011).

Columns and labels:
Format in all cases: in vivo, human
[1] = Salivary acetaldehyde during smoking with L-cysteine sucking tablets, gas chromatography (Example 7); settings: for average salivary acetaldehyde content immediately after smoking: 5 min smoking
Method: Five smokers (of the age of 29±2.8) participated in the study, in which three cigarettes were smoked (with cleaning periods in between). While smoking each cigarette (in 5 minutes time), the voluntaries sucked tablets blindfold, containing a placebo, 1.25 mg, 2.5 mg, 5 mg, 10 mg or 20 mg of L-cysteine. The acetaldehyde in the saliva samples was analysed by gas chromatography after 0, 5, 10, 20 minutes from starting to smoke.

[2] = Salivary acetaldehyde during smoking while sucking the Example 1 tablet (Example 6); settings: sucking tablet with 20 mg cysteine, one cigarette, after the first 5 minutes, two testees
Method: Two individuals tested the preparation prepared according to Example 1. The salivary acetaldehyde contents of the testees were measured before smoking and then after 5 minutes during smoking, i.e., 0 min, 5 min, 10 min, and 15 min after the testees started smoking. Each testee smoked one cigarette and, at the same time, saliva was collected from their mouths, as they sucked placebo tablets. Smoking lasted for 5 min. In another test, the testees repeated the study by sucking tablets containing 20 mg of cysteine.

[3] = Moistened cysteine filter in cigarette holder, salivary acetaldehyde during smoking (Example 9); settings: filter and cysteine in solid form (not moistened)
Description: The entire filter of Marlboro Red was removed or, in some tests, a 2-3 mm piece of the original filter was left in the cigarette.
In the tests, the ready commercial cigarette holders/mouthpieces of Denicotea, www.denicotea.de, were used. In the cigarette holders/mouthpieces, plastic cylinder-shaped “containers” were used, in which the filter material was packed. The original content (intended for the removal of nicotine) of the containers was removed and replaced with the material that was used in the study. The outer dimensions of the container were: diameter 8 mm and length 35 mm.
Cellulose wadding (c. 100 mg), filter paper (Whattman),
Cysteine was dissolved in distilled water, 30-180 mg of L-Cysteine/1 ml. The manufacturer: Fluka, 30089.
[…] After this, the testees smoked the cigarettes that had been placed in the mouthpieces. During smoking, saliva samples were collected from those participating in the tests and the acetaldehyde in the saliva was analyzed by gas chromatography, Perkin-Elmer, HS40, headspace Gas Chromatograph.

[4] = Salivary acetaldehyde after alcohol with slow-release buccal tablet (Example 10); settings: buccal tablet 100 mg, alcohol 0.8 g/kg, every 20 min up to 320 min, FIG. 10
Method: The testees enjoyed alcohol in amounts of 0.8 g per kilo of body weight. Thereafter, the testees attached, under their upper lip, a buccal tablet that contained 100 mg of N-acetyl cysteine and that slowly released the acetyl cysteine. The salivary acetaldehyde levels were measured at intervals of 20 minutes up to 320 minutes. Throughout, the acetaldehyde contents of those using the acetyl cysteine tablets were lower than of those using the placebo.

SMILES	reduction of amount of acetaldehyde compared with placebo ([1]; 1.25 mg tablet)	average salivary acetaldehyde content immediately after smoking ([1]; 5 mg L-cysteine sucking tablet) [µM]	inactivation of carcinogenic acetaldehyde in saliva during smoking ([1]; 5 mg, delivered with a melting tablet)	average salivary acetaldehyde content immediately after smoking ([1]; 10 mg L-cysteine sucking tablet) [µM]	average salivary acetaldehyde content immediately after smoking ([1]; 20 mg L-cysteine sucking tablet) [µM]	removal from saliva of acetaldehyde originating from tobacco ([1]; tablets of 5 mg, 10 and 20 mg, FIG. 4)	salivary acetaldehyde content [2]	filtering of acetaldehyde [3]	salivary acetaldehyde contents compared with placebo [4]
N[C@@H](CS)C(=O)O [L-cysteine]	about two thirds	0	completely inactivated	0	0	all of the acetaldehyde	non-measurable level	do not filter the acetaldehyde	–
CC(=O)N[C@@H](CS)C(=O)O [N-acetyl cysteine]	–	–	–	–	–	–	–	–	lower
